Results taken from ChEMBL document CHEMBL1201862, “PubChem BioAssay data set” (2004).
The source made the active and inactive calls.

Columns and labels:
[1] = molecular target: X-box-binding protein 1 (Homo sapiens, UniProt P17861); format: functional, Cricetulus griseus;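 further: confirmatory dose-response counter-screen serving a CHOP assay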
[2] = molecular target: Female germline-specific tumor suppressor gld-1 (Caenorhabditis elegans, UniProt Q17339); assay: inhibitors of GLD-1 binding to TGE RNA, dose response, biochemical, fluorescence polarization, C. elegans (AID 2802);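 further: fluorescence polarization of labeled TGE RNA bound by purified gld-1 protein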
[3] = molecular target: Protein Rev (Human immunodeficiency virus type 1 group M subtype B (isolate HXB2)(HIV-1), UniProt P04618); assay: inhibitors of Rev binding to RRE RNA, dose response, biochemical, fluorescence polarization, HIV-1 (AID 434976); set-up: species or system Human immunodeficiency virus 1
[4] = molecular target: DNA dC->dU-editing enzyme APOBEC-3A (Homo sapiens, UniProt P31941); assay: APOBEC3A DNA deaminase inhibitors, dose response, biochemical (AID 504722); format: functional
[5] = molecular target: DNA dC->dU-editing enzyme APOBEC-3G (Homo sapiens, UniProt Q9HC16); assay: Dose Response confirmation of small molecule APOBEC3G DNA Deaminase Inhibitors via a fluorescence-based single-stranded DNA deaminase assay. [Related pubchem assays (depositor defined):AID493012, AID493028]; format: functional
[6] = molecular target: T1, Neuropeptide Y receptor type 2 (Homo sapiens, UniProt P49146); assay: Fluorescence-based cell-based high-throughput dose response assay for agonists of NPY-Y2. [Related pubchem assays: 1703 (Screening assay (CNGC inhibitors).), 1359 (Screening assay (NPY-Y2 potentiators or agonists).), 1304 (Screening assay (NPY-Y1 potentiators or agonists).), 1710 (Screening assay (NPY-Y2 agonists).), 1791 (Summary AID.)]; format: functional
T1 sequence (P49146 whole entry): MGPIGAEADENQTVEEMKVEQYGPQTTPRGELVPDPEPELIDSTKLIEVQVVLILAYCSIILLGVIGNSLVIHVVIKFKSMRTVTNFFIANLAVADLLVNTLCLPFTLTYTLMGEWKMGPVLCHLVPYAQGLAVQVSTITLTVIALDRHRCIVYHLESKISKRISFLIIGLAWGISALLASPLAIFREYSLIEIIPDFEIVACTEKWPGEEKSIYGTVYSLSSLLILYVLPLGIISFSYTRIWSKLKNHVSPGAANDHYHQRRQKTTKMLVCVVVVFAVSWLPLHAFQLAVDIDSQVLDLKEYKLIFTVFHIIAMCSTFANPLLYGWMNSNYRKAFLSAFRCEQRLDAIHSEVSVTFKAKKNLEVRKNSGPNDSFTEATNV

[7] = molecular target: T2, Neuropeptide Y receptor type 1 (Homo sapiens, UniProt P25929); assay: Fluorescence-based counterscreen for agonists of NPY-Y2: cell-based high-throughput dose response assay for agonists of NPY-Y1.; format: functional
T2 sequence (P25929 whole entry): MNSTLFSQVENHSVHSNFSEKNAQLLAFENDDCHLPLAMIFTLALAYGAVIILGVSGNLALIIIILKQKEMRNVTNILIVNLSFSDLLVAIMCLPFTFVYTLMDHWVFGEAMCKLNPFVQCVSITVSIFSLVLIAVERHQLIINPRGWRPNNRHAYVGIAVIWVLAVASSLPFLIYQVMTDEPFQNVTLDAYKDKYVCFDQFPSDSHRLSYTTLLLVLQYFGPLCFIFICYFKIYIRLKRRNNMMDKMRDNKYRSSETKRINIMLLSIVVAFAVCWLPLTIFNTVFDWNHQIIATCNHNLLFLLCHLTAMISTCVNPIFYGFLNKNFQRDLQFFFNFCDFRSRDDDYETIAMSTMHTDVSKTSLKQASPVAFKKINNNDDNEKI

[8] = system: HEK293; assay: Fluorescence-based counterscreen for potentiators or agonists of NPY-Y2: cell-based high-throughput dose response assay to identify inhibitors of cyclic nucleotide gated ion channel (CNGC) activity. In this assay, the parental HEK293 cell line transfected with a cyclic-nucleotide gated ion channel (CNGC)-based cAMP sensor is used to measure inhibition of isoproterenol-induced CNGC activity by test compound.; format: functional; conditions: Homo sapiens;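 further: stimulus is 1 µM isoproterenol at EC100 plus PDE inhibitor Ro 20-1724 at 25 µM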
[9] = molecular target: T3, Short transient receptor potential channel 4 (Mus musculus, UniProt Q9QUQ5); assay: mouse TRPC4 channel inhibitors, dose response, cell-based, HEK293 TRPC4/mu-opioid, Fluo-4 calcium (AID 434942); format: functional;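 further: potency of inhibitors blocking the TRPC4 calcium response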
T3 sequence (Q9QUQ5 whole entry): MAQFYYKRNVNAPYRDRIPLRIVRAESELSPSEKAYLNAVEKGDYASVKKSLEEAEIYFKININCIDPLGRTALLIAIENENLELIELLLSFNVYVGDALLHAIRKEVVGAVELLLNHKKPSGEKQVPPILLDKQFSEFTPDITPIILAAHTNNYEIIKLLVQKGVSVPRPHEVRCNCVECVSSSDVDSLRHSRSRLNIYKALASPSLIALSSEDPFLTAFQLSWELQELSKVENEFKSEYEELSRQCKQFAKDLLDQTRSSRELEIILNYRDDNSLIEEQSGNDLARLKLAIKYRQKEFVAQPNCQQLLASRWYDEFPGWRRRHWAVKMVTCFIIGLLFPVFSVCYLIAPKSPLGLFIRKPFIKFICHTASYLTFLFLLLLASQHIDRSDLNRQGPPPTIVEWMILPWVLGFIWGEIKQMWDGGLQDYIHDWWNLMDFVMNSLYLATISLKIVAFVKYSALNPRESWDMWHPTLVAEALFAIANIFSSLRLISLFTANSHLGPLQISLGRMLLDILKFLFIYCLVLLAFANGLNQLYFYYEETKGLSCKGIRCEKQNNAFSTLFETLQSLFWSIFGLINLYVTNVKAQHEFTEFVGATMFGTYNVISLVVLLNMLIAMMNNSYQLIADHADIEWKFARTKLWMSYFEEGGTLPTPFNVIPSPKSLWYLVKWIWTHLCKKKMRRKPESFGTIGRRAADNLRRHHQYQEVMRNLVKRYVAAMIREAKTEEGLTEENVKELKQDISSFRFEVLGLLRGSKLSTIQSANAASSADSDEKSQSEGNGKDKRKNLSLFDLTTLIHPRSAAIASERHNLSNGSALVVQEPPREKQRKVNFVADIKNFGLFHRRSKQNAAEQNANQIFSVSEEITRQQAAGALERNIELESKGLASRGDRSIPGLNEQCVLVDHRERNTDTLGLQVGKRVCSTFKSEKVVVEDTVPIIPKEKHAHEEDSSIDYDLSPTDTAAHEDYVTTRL

[10] = molecular target: Eukaryotic translation initiation factor 4E (Mus musculus, UniProt P63073); assay: eIF4E–eIF4G protein interaction inhibitors, dose response, biochemical, TR-FRET (AID 855); format: functional;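 further: potency for disrupting eIF4E binding to eIF4GI seen as loss of FRET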
[11] = system: Streptococcus; assay: Group A Streptococcus viability loss, dose response, counter-screen for streptokinase expression inhibitor project, luminescence, BacTiterGlo (AID 1915); format: functional, organism-based;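 further: potency for reduction of bacterial viability or growth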
[12] = molecular target: T4, Streptokinase A (Streptococcus pyogenes serotype M1, UniProt P10520); assay: S. pyogenes streptokinase expression inhibitors, potency, dose response, plasminogen activation absorbance, OD405 (AID 1914); format: functional, Streptococcus pyogenes M1 GAS;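 further: secreted streptokinase activity via plasminogen activation per viability signal from cell pellet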
T4 sequence (P10520 whole entry): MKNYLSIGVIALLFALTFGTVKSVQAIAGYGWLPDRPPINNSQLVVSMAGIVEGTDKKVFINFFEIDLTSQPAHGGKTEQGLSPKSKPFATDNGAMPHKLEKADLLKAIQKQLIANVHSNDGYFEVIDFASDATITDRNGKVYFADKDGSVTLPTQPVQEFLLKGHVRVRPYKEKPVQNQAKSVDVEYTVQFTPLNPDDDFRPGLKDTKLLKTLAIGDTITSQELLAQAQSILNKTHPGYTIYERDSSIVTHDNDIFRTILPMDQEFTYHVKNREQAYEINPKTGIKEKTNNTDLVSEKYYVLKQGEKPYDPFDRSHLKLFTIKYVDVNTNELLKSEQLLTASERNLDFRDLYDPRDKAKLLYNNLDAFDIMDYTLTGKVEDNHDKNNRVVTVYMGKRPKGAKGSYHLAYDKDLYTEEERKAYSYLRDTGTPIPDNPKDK

[13] = system: Streptococcus sp. 'group A'; assay: growth inhibition of control SK(-) GAS strain, dose response, counter-screen for streptokinase expression inhibitor project, luminescence, kanamycin, BacTiterGlo, confirmation (AID 1900); format: functional, organism-based
[14] = system: Streptococcus; assay: Luminescence Microorganism-Based Dose Response Follow up to Identify Compounds Cytotoxic to Streptococcus. [Related pubchem assays: 1677 (Project Summary), 1915, 1914, 1902 (Retest at Dose), 1900 (Counter Screen), 1662 (Primary HTS)]; format: functional, organism-based

Eukaryotic translation initiation factor 4E, sequence (P63073 whole entry): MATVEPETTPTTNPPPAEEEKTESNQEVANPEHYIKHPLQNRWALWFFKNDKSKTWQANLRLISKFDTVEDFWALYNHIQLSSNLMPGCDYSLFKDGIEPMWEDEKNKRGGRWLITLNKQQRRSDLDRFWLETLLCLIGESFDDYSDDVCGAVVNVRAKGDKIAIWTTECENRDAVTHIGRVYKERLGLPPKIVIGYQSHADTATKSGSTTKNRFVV
Female germline-specific tumor suppressor gld-1, sequence (Q17339 whole entry): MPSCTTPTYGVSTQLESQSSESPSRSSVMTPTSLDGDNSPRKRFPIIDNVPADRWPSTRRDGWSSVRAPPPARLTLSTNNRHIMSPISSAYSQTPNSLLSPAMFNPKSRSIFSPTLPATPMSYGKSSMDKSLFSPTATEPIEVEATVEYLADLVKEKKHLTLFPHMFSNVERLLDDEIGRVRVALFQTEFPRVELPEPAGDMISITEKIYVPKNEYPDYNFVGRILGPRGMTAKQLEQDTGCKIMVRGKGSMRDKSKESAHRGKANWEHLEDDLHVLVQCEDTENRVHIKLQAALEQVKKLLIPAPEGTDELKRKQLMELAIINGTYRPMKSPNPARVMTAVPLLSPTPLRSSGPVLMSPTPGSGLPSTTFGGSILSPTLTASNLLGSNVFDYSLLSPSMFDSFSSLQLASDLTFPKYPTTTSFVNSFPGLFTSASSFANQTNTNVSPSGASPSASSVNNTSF
DNA dC->dU-editing enzyme APOBEC-3A, sequence (P31941 whole entry): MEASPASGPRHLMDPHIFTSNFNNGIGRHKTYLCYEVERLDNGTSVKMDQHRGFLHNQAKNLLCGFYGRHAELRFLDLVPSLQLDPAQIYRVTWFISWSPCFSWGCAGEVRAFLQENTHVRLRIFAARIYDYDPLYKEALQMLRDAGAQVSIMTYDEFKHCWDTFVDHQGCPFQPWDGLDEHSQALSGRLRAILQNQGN
DNA dC->dU-editing enzyme APOBEC-3G, sequence (Q9HC16 whole entry): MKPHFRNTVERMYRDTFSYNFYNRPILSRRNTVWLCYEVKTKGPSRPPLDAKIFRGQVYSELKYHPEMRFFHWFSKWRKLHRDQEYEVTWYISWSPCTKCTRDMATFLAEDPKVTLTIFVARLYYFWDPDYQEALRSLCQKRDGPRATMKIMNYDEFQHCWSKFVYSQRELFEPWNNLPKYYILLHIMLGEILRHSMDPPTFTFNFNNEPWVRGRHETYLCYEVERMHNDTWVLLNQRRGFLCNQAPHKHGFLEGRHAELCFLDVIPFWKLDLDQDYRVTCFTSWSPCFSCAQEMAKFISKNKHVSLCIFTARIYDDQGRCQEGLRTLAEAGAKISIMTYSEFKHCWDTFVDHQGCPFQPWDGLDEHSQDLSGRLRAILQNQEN
X-box-binding protein 1, sequence (P17861 whole entry): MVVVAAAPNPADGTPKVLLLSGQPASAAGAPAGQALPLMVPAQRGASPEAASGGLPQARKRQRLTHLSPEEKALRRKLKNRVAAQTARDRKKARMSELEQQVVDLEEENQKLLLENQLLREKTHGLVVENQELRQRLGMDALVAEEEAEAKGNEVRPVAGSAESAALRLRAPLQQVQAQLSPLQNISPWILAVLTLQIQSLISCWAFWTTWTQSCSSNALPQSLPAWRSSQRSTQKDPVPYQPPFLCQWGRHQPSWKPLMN
Protein Rev, sequence (P04618 whole entry): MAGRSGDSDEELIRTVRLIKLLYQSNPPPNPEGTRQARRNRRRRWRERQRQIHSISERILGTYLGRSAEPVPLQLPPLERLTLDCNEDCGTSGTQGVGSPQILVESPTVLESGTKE

CCCCCCn1c(SCCC)nc2c1c(=O)[nH]c(=O)n2C
Absolute IC50 (XBP1) [1]: 10 µM

C=CCNC(=O)/C(C#N)=C/c1ccccc1[N+](=O)[O-]
IC50 [2]: 1.1 µM (active)
IC50 [3]: 10.4 µM (not active)

CCc1cc(-c2n[nH]c(=S)n2CC)cs1
IC50 [4]: > 100 µM (inactive)
IC50 [5]: 5.02 µM (active)

Cc1cccc(N2CCc3c2nc2ccccc2c3N)c1
EC50 [6]: 3.43 µM (active)
EC50 [7]: 3.07 µM (active)
EC50 [8]: 9.3 µM (active)
EC50 [9]: 1.06 µM (active)
IC50 [10]: > 64 µM (inactive)

CC1CCN(C(=O)N2c3ccccc3Sc3ccccc32)CC1
EC50 [11]: 28.5 µM (active)
EC50 [12]: > 150 µM (not active)
EC50 [13]: 13.8 µM (active)
EC50 [14]: > 500 µM (not active)
